In test [1] the test system is HIV (H9/HTLV-IIIB) in C8166 cells. The experiment in a line: plaque assay: inhibition of syncytia formation in HIV-infected C8166 cells. The format is cell-based. To be noted: Human immunodeficiency virus 1, IIIB, 72 h, 50% inhibition of syncytia formation. The method, boiled down: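 C8166 cells (5×10^4/well) infected with 50× TCID50 H9/HTLV-IIIB in HEPES-buffered RPMI 1640 (pH 7.2), 10% FCS, with test compound in triplicate; 72 h at 37°, 5% CO2. Syncytia centers counted by phase-contrast microscopy; EC50 from percent inhibition versus serial dilutions by non-linear regression.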

The next test addresses T1, HIV protease (Human immunodeficiency virus type 1 group M subtype B, UniProt P04585).
T1 construct: HIV protease was expressed in E. coli; made in house; host or cells: E. coli (plasmid pBRT1 prt+)
Description: Recombinant HIV Protease HPLC Assay. The format is biochemical. To be noted: 37°, 30 min, pH 5.5. The method, boiled down: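 Recombinant protease from E. coli (pBRT1 prt+ construct), purified and diluted 1/38 for use, cleaves the decapeptide substrate VSFNFPQITL-NH2, containing an HIV polyprotein cleavage site. Inhibition of cleavage is monitored by HPLC.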

In US5614533A, “Substituted pipecolinic acid derivatives as HIV protease inhibitors” (Bio-Mega/Boehringer Ingelheim Research, Inc., priority 1994, dated 1997) one finds EC50 and IC50 data, which are given here for 20 molecules.

What is called EC50 is the concentration at which the effect is half-maximal. A low value points to greater potency. What is called IC50 is the concentration that inhibits the measured activity by half. Take `CC(C)[C@H](NC(=O)c1ccc2ccccc2n1)C(=O)N[C@@H](Cc1ccccc1)[C@H](O)CN1CC[C@@H](S(=O)(=O)Cc2ccccn2)C[C@H]1C(=O)NC(C)(C)C` [Table V, entry 17, N-tert-butyl-1-{2(S)(R)-hydroxy-4-phenyl-3(S)-{{N-(2-quinolylinylcarbonyl)valyl}amino}butyl}-4(R)-{(2-pyridinylmethyl)sulfonyl}piperidine-2-carboxamide]: in test [1] (Table V), a half-maximal effect (EC50) was put at 33 nM. For the same molecule, on HIV protease (Table V), the IC50 is 2.4 nM.
`CC(C)(C)NC(=O)[C@@H]1C[C@H](Oc2ccccc2)CCN1C[C@@H](O)[C@H](Cc1ccccc1)NC(=O)[C@H](CC(N)=O)NC(=O)c1ccc2ccccc2n1` [Table IV, entry 21, N-tert-butyl-1-{2(R)-hydroxy-4-phenyl-3(S)-{{N-(2-quinolinylcarbonyl)asparaginyl}amino}butyl}-4(R)-phenoxypiperidine-2(S)-carboxamide] showed an EC50 in test [1] (Table IV) of 15 nM. Besides, the IC50 at HIV protease (Table IV) came out at 5.4 nM.
For `CC(C)(C)NC(=O)[C@@H]1C[C@H](S(=O)(=O)c2ccccc2)CCN1C[C@@H](O)[C@H](Cc1ccccc1)NC(=O)OCc1ccccc1` [Table IV, entry 4, N-tert-butyl-1-{3(S)-(benzyloxycarbonylamino)-2(R)-hydroxy-4-phenylbutyl}-4(R)-(phenylsulfonyl)piperidine-2(S)-carboxamide], it took 1400 nM to reach a half-maximal effect in test [1] (Table IV) (EC50). In addition, on HIV protease (Table IV), the IC50 stood at 30 nM.
Consider `CC(C)[C@H](NC(=O)OCc1ccccc1)C(=O)N[C@@H](Cc1ccccc1)[C@H](O)CN1CC[C@@H](S(=O)(=O)c2ccccc2)C[C@H]1C(=O)NC(C)(C)C` [Table IV, entry 14], for which, in test [1] (Table IV), the half-maximal effective concentration (EC50) worked out at 40 nM. Further, the IC50 on HIV protease (Table IV) is 2.3 nM.
`CC(C)[C@H](NC(=O)c1ccc2ccccc2n1)C(=O)N[C@@H](Cc1ccccc1)[C@H](O)CN1CC[C@@H](S(=O)(=O)Cc2cccnc2)C[C@H]1C(=O)NC(C)(C)C` [Table V, entry 18, N-tert-butyl-1-{2(S)(R)-hydroxy-4-phenyl-3(S)-{{N-(2-quinolylinylcarbonyl)valyl}amino}butyl}-4(R)-{(3-pyridinylmethyl)sulfonyl}piperidine-2-carboxamide] showed an EC50 in test [1] (Table V) of 67 nM. Also, on HIV protease (Table V), the IC50 stood at 1.8 nM.
In test [1] (Table VI), `CC(C)(C)NC(=O)[C@@H]1C[C@H](SCc2cccnc2)CCN1C[C@@H](O)[C@H](Cc1ccccc1)NC(=O)[C@@H](NC(=O)c1ccc2ccccc2n1)C(C)(C)C` [Table VI, entry 5, N-tert-butyl-1-{2(R)-hydroxy-4-phenyl-3(S)-{{N-(2-quinolylinylcarbonyl)tert-butylglycyl}amino}butyl}-4(R)-{(3-pyridinylmethyl)thio}piperidine-2(S)-carboxamide] showed an EC50 of 8 nM. For the same molecule, at HIV protease (Table VI), the IC50 is 2.2 nM.
Molecule `CC(C)(C)NC(=O)[C@@H]1C[C@H](S(=O)(=O)c2ccncc2)CCN1C[C@@H](O)[C@H](Cc1ccccc1)NC(=O)[C@@H](NC(=O)c1ccc2ccccc2n1)C(C)(C)C` [Table VI, entry 7, N-tert-butyl-1-{2(R)-hydroxy-4-phenyl-3(S)-{{N-(2-quinolylinylcarbonyl)tert-butylglycyl}amino}butyl}-4(R)-(4-pyridinylsulfonyl)piperidine-2(S)-carboxamide] returned an EC50 in test [1] (Table VI) of 29 nM. Further, the IC50 at HIV protease (Table VI) worked out at 2.1 nM.
Consider `CC(C)[C@H](NC(=O)OCc1ccccc1)C(=O)N[C@@H](Cc1ccccc1)[C@H](O)CN1CC[C@@H](Oc2ccccn2)C[C@H]1C(=O)NC(C)(C)C` [Table IV, entry 18], for which, in test [1] (Table IV), a half-maximal response (EC50) required 56 nM. Also, the IC50 at HIV protease (Table IV) stood at 1.8 nM.
The molecule `Cc1cc(S[C@@H]2CCN(C[C@@H](O)[C@H](Cc3ccccc3)NC(=O)[C@@H](NC(=O)c3ccc4ccccc4n3)C(C)C)[C@H](C(=O)NC(C)(C)C)C2)nc(C)n1` [Table V, entry 22, N-tert-butyl-1-{2(R)-hydroxy-4-phenyl-3(S)-{{N-(2-quinolylinylcarbonyl)valyl}amino}butyl}-4(R)-{(2,6-dimethyl-4-pyrimidinyl)thio}piperidine-2(S)-carboxamide] yielded an EC50 in test [1] (Table V) of 11 nM. Besides, on HIV protease (Table V), the IC50 was 2.4 nM.
In test [1] (Table V), `CC(C)[C@H](NC(=O)c1ccc2ccccc2n1)C(=O)N[C@@H](Cc1ccccc1)[C@H](O)CN1CC[C@@H](SCc2cccnc2)C[C@H]1C(=O)NC(C)(C)C` [Table V, entry 8, N-tert-butyl-1-{2(S)(R)-hydroxy-4-phenyl-3(S)-{{N-(2-quinolylinylcarbonyl)valyl}amino}butyl}-4(R)-{(3-pyridinylmethyl)thio}piperidine-2-carboxamide] showed an EC50 of 3 nM. Also, at HIV protease (Table V), the IC50 is 2.2 nM.
`CC(C)(C)NC(=O)[C@@H]1C[C@H](Sc2ccncc2)CCN1C[C@@H](O)[C@H](Cc1ccccc1)NC(=O)c1cc(Cl)ccc1Cl` [Table VII, entry 7, N-tert-butyl-1-{3(S)-{{(2,5-dichlorophenyl)carbonyl}amino}-2(R)-hydroxy-4-phenylbutyl}-4(R)-(4-pyridinylthio)piperidine-2(S)-carboxamide] had an EC50 in test [1] (Table VII) of 360 nM. For the same molecule, the IC50 at HIV protease (Table VII) was found to be 9.8 nM.
In test [1] (Table IV), `CC(C)(C)NC(=O)[C@@H]1C[C@H](Sc2ccccc2)CCN1C[C@@H](O)[C@H](Cc1ccccc1)NC(=O)[C@H](CC(N)=O)NC(=O)c1ccc2ccccc2n1` [Table IV, entry 23, N-tert-butyl-1-{2(R)-hydroxy-4-phenyl-3(S)-{{N-(2-quinolinylcarbonyl)asparaginyl}amino}butyl}-4(R)-(phenylthio)piperidine-2(S)-carboxamide] came in with an EC50 of 10 nM. Also, the IC50 at HIV protease (Table IV) was found to be 1.8 nM.
In test [1] (Table IV), `CC(C)(C)NC(=O)[C@@H]1C[C@H](S(=O)(=O)c2ccccc2)CCN1C[C@@H](O)[C@H](Cc1ccccc1)NC(=O)[C@H](CC(N)=O)NC(=O)OCc1ccccc1` [Table IV, entry 15] registered an EC50 of 1270 nM. Besides, on HIV protease (Table IV), the IC50 was found to be 2.9 nM.
`CC(C)[C@H](NC(=O)c1ccc2ccccc2n1)C(=O)N[C@@H](Cc1ccccc1)[C@H](O)CN1CC[C@@H](Sc2ccncc2)C[C@H]1C(=O)NC(C)(C)C` [Table V, entry 5, N-tert-butyl-1-{2(S)(R)-hydroxy-4-phenyl-3(S)-{{N-(2-quinolylinylcarbonyl)valyl}amino}butyl}-4(R)-(4-pyridinylthio)piperidine-2-carboxamide] displayed an EC50 in test [1] (Table V) of 3 nM. Besides, the IC50 at HIV protease (Table V) is 1.5 nM.
In test [1] (Table V), `CC(C)[C@H](NC(=O)c1ccc2ccccc2n1)C(=O)N[C@@H](Cc1ccccc1)[C@H](O)CN1CC[C@@H](Oc2ccccc2)C[C@H]1C(=O)NC(C)(C)C` [Table V, entry 7, N-tert-butyl-1-{2(S)(R)-hydroxy-4-phenyl-3(S)-{{N-(2-quinolylinylcarbonyl)valyl}amino}butyl}-4(R)-phenoxypiperidine-2-carboxamide] registered an EC50 of 14 nM. The IC50 on HIV protease (Table V) is 3.4 nM.
In turn, `CC(C)[C@H](NC(=O)c1ccc2ccccc2n1)C(=O)N[C@@H](Cc1ccccc1)[C@H](O)CN1CC[C@@H](SCc2ccncc2)C[C@H]1C(=O)NC(C)(C)C` [Table V, entry 2(S), N-tert-butyl-1-{2(R)-hydroxy-4-phenyl-3(S)-{{N-(2-quinolylinylcarbonyl)valyl}amino}butyl}-4(R)-{(4-pyridinylmethyl)thio}piperidine-2-carboxamide] had an EC50 in test [1] (Table V) of 4 nM. The IC50 at HIV protease (Table V) is 2.8 nM.
For `CC(C)[C@H](NC(=O)OCc1ccccc1)C(=O)N[C@@H](Cc1ccccc1)[C@H](O)CN1CC[C@@H](SCc2ccccc2)C[C@H]1C(=O)NC(C)(C)C` [Table IV, entry 37, N-tert-butyl-1-{3(S)-{{N-(benzyloxycarbonyl)valyl}amino}-2(R)-hydroxy-4-phenylbutyl}-4(R)-(benzylthio)piperidine-2(S)-carboxamide], in test [1] (Table IV), the EC50 was found to be 7 nM. Moreover, on HIV protease (Table IV), the IC50 turned out to be 2.3 nM.
In turn, `CC(C)(C)NC(=O)[C@@H]1C[C@H](Sc2ncccn2)CCN1C[C@@H](O)[C@H](Cc1ccccc1)NC(=O)OCc1ccccc1` [Table IV, entry 30, N-tert-butyl-1-{3(S)-(benzyloxycarbonylamino)-2(R)-hydroxy-4-phenylbutyl}-4(R)-(2-pyrimidinylthio)piperidine-2(S)-carboxamide] had an EC50 in test [1] (Table IV) of 822 nM. In addition, the IC50 at HIV protease (Table IV) worked out at 19 nM.
Consider `CC(C)(C)NC(=O)[C@@H]1C[C@H](Sc2ccccc2)CCN1C[C@@H](O)[C@H](Cc1ccccc1)NC(=O)[C@H](CC(N)=O)NC(=O)c1ccc2ccccc2c1` [Table IV, entry 25, N-tert-butyl-1-{2(R)-hydroxy-3(S)-{{N-(2-naphthalenylcarbonyl)asparaginyl}amino}-4-phenylbutyl}-4(R)-(phenylthio)piperidine-2(S)-carboxamide], for which the EC50 in test [1] (Table IV) worked out at 33 nM. For the same molecule, the IC50 at HIV protease (Table IV) was 1.9 nM.
For `Cc1ccnc(S[C@@H]2CCN(C[C@@H](O)[C@H](Cc3ccccc3)NC(=O)[C@@H](NC(=O)c3ccc4ccccc4n3)C(C)C)[C@H](C(=O)NC(C)(C)C)C2)n1` [Table V, entry 23, N-tert-butyl-1-{2(R)-hydroxy-4-phenyl-3(S)-{{N-(2-quinolylinylcarbonyl)valyl}amino}butyl}-4(R)-{(4-methyl-2-pyrimidinyl)thio}piperidine-2(S)-carboxamide], the EC50 in test [1] (Table V) came to 16 nM. The IC50 on HIV protease (Table V) stood at 2.8 nM.
